Results on ten compounds are retold here after US11753397B2, “Cereblon binders for the degradation of ikaros” (C4 Therapeutics, Inc., priority 2018, dated 2023).

SMILES strings stand for the structures.

The test relates to NCIH929.1 cells. Briefly: Cell viability assay (CellTiter-Glo 2.0, ATP quantification). It is filed as cell-based. The note with it: NCIH929.1 cell viability, CellTiter-Glo 2.0, 96 hr incubation, top concentration 1 μM. Summed up:
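Read-out is CellTiter-Glo 2.0 luminescence (ATP), after 96 h compound exposure at 37 °C, with a day-0 plate giving the CT0 baseline. Duplicate 10-point half-log titration from 1 μM applied to 750 cells/well in RPMI, 10% FBS, 0.05 mM 2-mercaptoethanol.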
Background: ATP-based viability assays read luminescence as a measure of living cells.

As a reminder, the GI50 is the concentration giving 50% growth inhibition. High values mean less potent growth inhibition, low ones more potent growth inhibition. The compound `O=C1CCC(N2C(=O)c3cccc(NCc4cnn(C5CCN(C(=O)C6(F)CCC6)CC5)c4)c3C2=O)C(=O)N1` (stereo not shown) [Compound 79, 2-(2,6-dioxopiperidin-3-yl)-4-(((1-(1-(1-fluorocyclobutane-1-carbonyl)piperidin-4-yl)-1H-pyrazol-4-yl)methyl)amino)isoindoline-1,3-dione] gave a GI50 of less than 0.1 µM.
The same measure for `CC1(C(=O)N2CCC(n3cc(CNc4cccc5c4C(=O)N(C4CCC(=O)NC4=O)C5=O)cn3)CC2)CCCC1` (stereo not shown) [Compound 62, 2-(2,6-dioxopiperidin-3-yl)-4-(((1-(1-(1-methylcyclopentane-1-carbonyl)piperidin-4-yl)-1H-pyrazol-4-yl)methyl)amino)isoindoline-1,3-dione]: less than 0.001 µM.
For `O=C1CCC(N2C(=O)c3cccc(NCc4cnn(C5CCN(C(=O)C6CCN(C(=O)C7CCCC7)CC6)CC5)c4)c3C2=O)C(=O)N1` (stereo not shown) [Compound 107, 4-(((1-(1-(1-(cyclopentanecarbonyl)piperidine-4-carbonyl)piperidin-4-yl)-1H-pyrazol-4-yl)methyl)amino)-2-(2,6-dioxopiperidin-3-yl)isoindoline-1,3-dione], the GI50 is less than 0.1 µM.
The same measure for `O=C1CCC(N2C(=O)c3cccc(NCc4cnn(-c5ccccc5)c4)c3C2=O)C(=O)N1` (stereo not shown) [Compound 145, 2-(2,6-dioxopiperidin-3-yl)-4-(((1-phenyl-1H-pyrazol-4-yl)methyl)amino)isoindoline-1,3-dione]: less than 0.1 µM; for `Cn1cc(CNc2cccc3c2C(=O)N(C2CCC(=O)NC2=O)C3=O)cn1` (stereo not shown) [Compound 141, 2-(2,6-dioxopiperidin-3-yl)-4-(((1-methyl-1H-pyrazol-4-yl)methyl)amino)isoindoline-1,3-dione]: less than 0.1 µM; for `O=C1CCC(N2C(=O)c3cccc(NCc4cnn(C5CCN(C(=O)C6CC(F)(F)C6)CC5)c4)c3C2=O)C(=O)N1` (stereo not shown) [Compound 29, 4-(((1-(1-(3,3-difluorocyclobutane-1-carbonyl)piperidin-4-yl)-1H-pyrazol-4-yl)methyl)amino)-2-(2,6-dioxopiperidin-3-yl)isoindoline-1,3-dione]: less than 0.1 µM.
Next, `CC1(CN2CCC(n3cc(CNc4cccc5c4C(=O)N(C4CCC(=O)NC4=O)C5=O)cn3)CC2)CCCCC1` (stereo not shown) [Compound 132, 2-(2,6-dioxopiperidin-3-yl)-4-(((1-(1-((1-methylcyclohexyl)methyl)piperidin-4-yl)-1H-pyrazol-4-yl)methyl)amino)isoindoline-1,3-dione]: less than 0.1 µM.
Compound `CCCCC(=O)N1CCC(n2cc(CNc3cccc4c3C(=O)N(C3CCC(=O)NC3=O)C4=O)cn2)CC1` (stereo not shown) [Compound 40, 2-(2,6-dioxopiperidin-3-yl)-4-(((1-(1-pentanoylpiperidin-4-yl)-1H-pyrazol-4-yl)methyl)amino)isoindoline-1,3-dione] came in with a concentration for 50% growth inhibition (GI50) of less than 0.1 µM.
In turn, `CO[C@H]1CC[C@H](C(=O)N2CCC(n3cc(CNc4cccc5c4C(=O)N(C4CCC(=O)NC4=O)C5=O)cn3)CC2)CC1` (stereo partly shown) [Compound 15, 2-(2,6-dioxopiperidin-3-yl)-4-(((1-(1-((1r,4r)-4-methoxycyclohexane-1-carbonyl)piperidin-4-yl)-1H-pyrazol-4-yl)methyl)amino)isoindoline-1,3-dione] gave a GI50 of less than 0.1 µM.
Next, `O=C1CCC(N2C(=O)c3cccc(NCc4cnn(C5CCN(C(=O)c6cnco6)CC5)c4)c3C2=O)C(=O)N1` (stereo not shown) [Compound 7, 2-(2,6-dioxopiperidin-3-yl)-4-(((1-(1-(oxazole-5-carbnonyl)piperidin-4-yl)-1H-pyrazol-4-yl)methyl)amino)isoindoline-1,3-dione]: less than 0.1 µM.
